Assay results reported in US20230257372A1 (CHONG KUN DANG PHARMACEUTICAL CORP., priority 2020, published 2023).
Where two headings read alike, the source gives them in different places.

How the values were obtained:
[1] = target: T1, human recombinant HDAC6 (Homo sapiens, UniProt Q9UBN7); test: HDAC6 enzyme activity inhibition (HDAC Fluorimetric Drug Discovery Kit); assay type: biochemical
T1 construct: purchased Calbiochem Inc. 382180
T1 sequence (Q9UBN7 1-1215): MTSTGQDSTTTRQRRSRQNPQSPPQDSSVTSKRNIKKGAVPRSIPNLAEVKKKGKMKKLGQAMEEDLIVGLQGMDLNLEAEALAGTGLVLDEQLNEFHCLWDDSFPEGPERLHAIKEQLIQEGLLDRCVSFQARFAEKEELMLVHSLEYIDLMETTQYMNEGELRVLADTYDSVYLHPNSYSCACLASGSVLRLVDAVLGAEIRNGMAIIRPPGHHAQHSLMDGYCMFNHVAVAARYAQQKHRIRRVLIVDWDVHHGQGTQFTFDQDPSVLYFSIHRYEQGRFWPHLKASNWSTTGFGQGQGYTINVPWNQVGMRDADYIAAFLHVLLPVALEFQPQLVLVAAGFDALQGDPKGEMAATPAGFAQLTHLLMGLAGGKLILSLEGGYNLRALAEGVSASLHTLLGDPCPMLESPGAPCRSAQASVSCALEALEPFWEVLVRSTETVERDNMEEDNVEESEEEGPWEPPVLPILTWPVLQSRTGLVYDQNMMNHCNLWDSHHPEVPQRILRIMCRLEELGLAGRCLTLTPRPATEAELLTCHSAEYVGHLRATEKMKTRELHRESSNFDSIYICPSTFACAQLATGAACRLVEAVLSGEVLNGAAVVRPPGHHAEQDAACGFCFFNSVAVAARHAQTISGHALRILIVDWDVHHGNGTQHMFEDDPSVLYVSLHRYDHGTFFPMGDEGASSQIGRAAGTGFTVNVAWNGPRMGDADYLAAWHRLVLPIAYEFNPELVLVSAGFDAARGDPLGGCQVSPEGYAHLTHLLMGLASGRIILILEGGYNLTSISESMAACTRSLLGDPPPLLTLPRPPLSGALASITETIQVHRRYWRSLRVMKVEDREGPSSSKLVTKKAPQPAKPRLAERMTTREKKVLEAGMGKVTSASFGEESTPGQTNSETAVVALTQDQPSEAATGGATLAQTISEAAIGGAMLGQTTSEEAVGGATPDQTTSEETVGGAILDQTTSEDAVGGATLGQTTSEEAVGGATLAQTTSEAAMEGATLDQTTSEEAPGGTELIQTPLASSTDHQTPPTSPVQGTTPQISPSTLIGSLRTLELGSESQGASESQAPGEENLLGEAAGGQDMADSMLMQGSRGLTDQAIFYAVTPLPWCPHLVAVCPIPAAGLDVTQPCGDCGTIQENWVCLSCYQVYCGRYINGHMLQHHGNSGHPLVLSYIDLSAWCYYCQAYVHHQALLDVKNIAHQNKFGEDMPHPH
Protocol: (§1) An experiment was conducted to identify the selectivity of the compound represented by formula I of the present invention to HDAC6 through an experiment on HDAC1 and HDAC6 enzyme activity inhibition.
(§2) A 5-fold dilution of the compound was divided into a 96-well plate, after which […] of the enzyme and 10 μM of the substrate were inserted into each well and subjected to reaction at 30° C. for 60 minutes, such that Fluor de Lys® Developer II (BML-KI176) was inserted thereinto and subjected to reaction for 30 minutes and finished.

[2] = target: T2, human recombinant HDAC1 (Homo sapiens, UniProt Q13547); test: HDAC1 enzyme activity inhibition (HDAC Fluorimetric Drug Discovery Kit); assay type: biochemical; details: read-out: HDAC1
T2 construct: purchased Enzo Life Science, Inc. BML-SE456
T2 sequence (Q13547 whole entry): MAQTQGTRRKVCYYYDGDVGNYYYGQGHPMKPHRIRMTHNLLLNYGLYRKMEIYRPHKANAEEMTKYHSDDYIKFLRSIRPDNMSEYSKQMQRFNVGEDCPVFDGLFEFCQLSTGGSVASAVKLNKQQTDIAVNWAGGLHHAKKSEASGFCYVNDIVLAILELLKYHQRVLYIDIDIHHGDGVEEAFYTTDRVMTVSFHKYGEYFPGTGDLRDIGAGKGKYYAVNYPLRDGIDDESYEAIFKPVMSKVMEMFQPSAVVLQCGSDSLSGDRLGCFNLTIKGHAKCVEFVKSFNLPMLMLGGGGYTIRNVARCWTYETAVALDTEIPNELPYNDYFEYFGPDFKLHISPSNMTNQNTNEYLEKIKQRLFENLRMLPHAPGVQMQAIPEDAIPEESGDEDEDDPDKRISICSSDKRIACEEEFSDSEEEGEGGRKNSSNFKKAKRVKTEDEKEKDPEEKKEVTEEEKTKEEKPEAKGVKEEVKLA
Protocol: as §1, §2

[3] = human recombinant HDAC6, IC50 calculated with GraphPad Prism
[4] = human recombinant HDAC1, IC50 calculated with GraphPad Prism
[5] = human recombinant HDAC6, same protocol as HDAC1
[6] = human recombinant HDAC1, Fluor de Lys substrate, 30° C. 60 minutes

Structure (SMILES)	HDAC6 selectivity (fold) ([1]; HDAC1 IC50 / HDAC6 IC50)	IC50 [1, 3] [µM]	IC50 [2, 4] [µM]	HDAC6 selectivity (fold) ([1]; HDAC6 over HDAC1)	IC50 [1, 5] [µM]	IC50 [2, 6] [µM]
CCN1CCN(Cc2cccc(-c3cn(Cc4ccc(-c5nnc(C(F)F)o5)cc4)nn3)c2)CC1 [Compound 4415, 2-(difluoromethyl)-5-(4-((4-(3-((4-ethylpiperazin-1-yl)methyl)phenyl)-1H-1,2,3-triazol-1-yl)methyl)phenyl)-1,3,4-oxadiazole]	545	0.0917	> 50	–	–	–
FC(F)c1nnc(-c2ccc(Cn3cc(-c4ccc5c(c4)CCN(C4CCC4)C5)nn3)nc2)o1 [Compound 4054, 2-(6-((4-(2-cyclobutyl-1,2,3,4-tetrahydroisoquinolin-6-yl)-1H-1,2,3-triazol-1-yl)methyl)pyridin-3-yl)-5-(difluoromethyl)-1,3,4-oxadiazole]	1094	0.0457	> 50	–	–	–
CC(=O)N1CCC(Nc2ccc(F)c(-c3cn(Cc4ccc(-c5nnc(C(F)F)o5)cc4F)nn3)c2)CC1 [Compound 4437, 1-(4-((3-(1-(4-(5-(difluoromethyl)-1,3,4-oxadiazol-2-yl)-2-fluorobenzyl)-1H-1,2,3-triazol-4-yl)-4-fluorophenyl)amino)piperidin-1-yl)ethan-1-one]	600	0.0833	> 50	–	–	–
Fc1cc(-c2nnc(C(F)F)o2)ccc1Cn1cc(-c2cccc3c2CN(C2COC2)C3)nn1 [Compound 4538, 2-(difluoromethyl)-5-(3-fluoro-4-((4-(2-(oxetan-3-yl)isoindolin-4-yl)-1H-1,2,3-triazol-1-yl)methyl)phenyl)-1,3,4-oxadiazole]	–	–	–	539	0.0927	> 50
FC(F)c1nnc(-c2ccc(Cn3cc(-c4cccc5[nH]ccc45)nn3)cc2)o1 [Compound 4078, 2-(4-((4-(1H-indol-4-yl)-1H-1,2,3-triazol-1-yl)methyl)phenyl)-5-(difluoromethyl)-1,3,4-oxadiazole]	1424	0.0351	> 50	–	–	–
FC(F)c1nnc(-c2ccc(Cn3cc(-c4cccc(NC5CCOCC5)c4)nn3)cc2)o1 [Compound 4325, N-(3-(1-(4-(5-(difluoromethyl)-1,3,4-oxadiazol-2-yl)benzyl)-1H-1,2,3-triazol-4-yl)phenyl)tetrahydro-2H-pyran-4-amine]	830	0.0602	> 50	–	–	–
FC(F)c1nnc(-c2ccc(Cn3cc([C@@H]4CCCN4C4COC4)nn3)nc2)o1 [Compound 4026, (S)-2-(difluoromethyl)-5-(6-((4-(1-(oxetan-3-yl)pyrrolidin-2-yl)-1H-1,2,3-triazol-1-yl)methyl)pyridin-3-yl)-1,3,4-oxadiazole]	189	0.263	> 50	–	–	–
FC(F)c1nnc(-c2ccc(Cn3cc(-c4ccc(CN5CCC5)cc4)nn3)cc2)o1 [Compound 4548, 2-(4-((4-(4-(azetidin-1-ylmethyl)phenyl)-1H-1,2,3-triazol-1-yl)methyl)phenyl)-5-(difluoromethyl)-1,3,4-oxadiazole]	–	–	–	4545	0.0131	> 50
CCC(=O)N1CCN(c2cccc(-c3cn(Cc4ccc(-c5nnc(C(F)F)o5)cc4F)nn3)c2)CC1 [Compound 4377, 1-(4-(3-(1-(4-(5-(difluoromethyl)-1,3,4-oxadiazol-2-yl)-2-fluorobenzyl)-1H-1,2,3-triazol-4-yl)phenyl)piperazin-1l-yl)propan-1l-one]	1039	0.0481	> 50	–	–	–
FC(F)c1nnc(-c2ccc(Cn3cc(-c4ccc5c(CN6CCCC6)c[nH]c5c4)nn3)nc2)o1 [Compound 4493, 2-(difluoromethyl)-5-(6-((4-(3-(pyrrolidin-1-ylmethyl)-1H-indol-6-yl)-1H-1,2,3-triazol-1-yl)methyl)pyridin-3-yl)-1,3,4-oxadiazole]	7692	0.0065	> 50	–	–	–
CN1Cc2ccc(-c3cn(Cc4ccc(-c5nnc(C(F)F)o5)cn4)nn3)cc2C1 [Compound 4540, 2-(difluoromethyl)-5-(6-((4-(2-methylisoindolin-5-yl)-1H-1,2,3-triazol-1-yl)methyl)pyridin-3-yl)-1,3,4-oxadiazole]	–	–	–	583	0.0857	> 50
FC(F)c1nnc(-c2ccc(Cn3cc(-c4cccc(CN5CC6(COC6)C5)c4)nn3)nc2)o1 [Compound 3965, 6-(3-(1-((5-(5-(difluoromethyl)-1,3,4-oxadiazol-2-yl)pyridin-2-yl)methyl)-1H-1,2,3-triazol-4-yl)benzyl)-2-oxa-6-azaspiro[3.3]heptane]	1392	0.0359	> 50	–	–	–
Fc1cc(-c2nnc(C(F)F)o2)ccc1Cn1cc(-c2cccc3c2CN(C2CCC2)C3)nn1 [Compound 4537, 2-(4-((4-(2-cyclobutylisoindolin-4-yl)-1H-1,2,3-triazol-1-yl)methyl)-3-fluorophenyl)-5-(difluoromethyl)-1,3,4-oxadiazole]	–	–	–	657	0.076	> 50

Next, values leading:

HDAC6 selectivity (fold) ([1]; HDAC1 IC50 / HDAC6 IC50)	IC50 [1, 3] [µM]	IC50 [2, 4] [µM]	HDAC6 selectivity (fold) ([1]; HDAC6 over HDAC1)	IC50 [1, 5] [µM]	IC50 [2, 6] [µM]	Structure (SMILES)
–	–	–	952	0.0525	> 50	CC1(C)CCN(Cc2ccc(-c3cn(Cc4ccc(-c5nnc(C(F)F)o5)cc4F)nn3)cn2)CC1 [Compound 17777, 2-(difluoromethyl)-5-(4-((4-(6-((4,4-dimethylpiperidin-1-yl)methyl)pyridin-3-yl)-1H-1,2,3-triazol-1-yl)methyl)-3-fluorophenyl)-1,3,4-oxadiazole]
–	–	–	6024	0.0083	> 50	FC(F)c1nnc(-c2ccc(Cn3cc(-c4ccc(CNC5CCC5)cc4)nn3)nc2)o1 [Compound 4565, N-(4-(1-((5-(5-(difluoromethyl)-1,3,4-oxadiazol-2-yl)pyridin-2-yl)methyl)-1H-1,2,3-triazol-4-yl)benzyl)cyclobutanamine]
–	–	–	512	0.0976	> 50	OCc1ccc(-c2cn(Cc3ccc(-c4nnc(C(F)F)o4)cc3F)nn2)s1 [Compound 17922]
–	–	–	934	0.0535	> 50	CN(C)Cc1ccc(-c2cn(Cc3ncc(-c4nnc(C(F)F)o4)cc3F)nn2)s1 [Compound 18311, 1-(5-(1-((5-(5-(difluoromethyl)-1,3,4-oxadiazol-2-yl)-3-fluoropyridin-2-yl)methyl)-1H-1,2,3-triazol-4-yl)thiophen-2-yl)-N,N-dimethylmethanamine]
–	–	–	1908	0.0262	> 50	Fc1cc(-c2nnc(C(F)F)o2)ccc1Cn1cc(-c2cccc(N3CCN(C4COC4)CC3)c2F)nn1 [Compound 4580]
–	–	–	782	0.0639	> 50	CC(C)N1CCN(c2cccc(-c3cn(Cc4ncc(-c5nnc(C(F)F)o5)cc4F)nn3)c2)CC1 [Compound 18926]
–	–	–	1144	0.0437	> 50	Fc1cc(-c2nnc(C(F)F)o2)ccc1Cn1cc(-c2ccccn2)nn1 [Compound 18256, 2-(difluoromethyl)-5-(3-fluoro-4-((4-(pyridin-2-yl)-1H-1,2,3-triazol-1-yl)methyl)phenyl)-1,3,4-oxadiazole]
–	–	–	856	0.0584	> 50	Fc1cc(-c2cn(Cc3ncc(-c4nnc(C(F)F)o4)cc3F)nn2)ccc1CN1CCCC1 [Compound 18948, 2-(difluoromethyl)-5-(5-fluoro-6-((4-(3-fluoro-4-(pyrrolidin-1-ylmethyl)phenyl)-1H-1,2,3-triazol-1-yl)methyl)pyridin-3-yl)-1,3,4-oxadiazole]
